Measured values reported in ChEMBL document CHEMBL3632488, “Discovery of potent and selective cytotoxic activity of new quinazoline-ureas against TMZ-resistant glioblastoma multiforme (GBM)” (Eur J Med Chem, 2015).
The source made the active and inactive calls. The rule behind the calls is not given here.

Assays:
[1] = Antiproliferative activity against human GBM1 cells assessed as reduction in cell viability at 10 uM incubated for 72 hrs by WST-1 method; type: functional; conditions: GBM1, 72 h
[2] = Antiproliferative activity against human GBM2 cells assessed as reduction in cell viability at 10 uM incubated for 72 hrs by WST-1 method; type: functional; conditions: GBM2, 72 h
[3] = Antiproliferative activity against human GBM1 cells assessed as reduction in cell viability incubated for 72 hrs by WST-1 method; type: functional, cell-based; conditions: GBM1, 72 h
[4] = Antiproliferative activity against human GBM2 cells assessed as reduction in cell viability incubated for 72 hrs by WST-1 method; type: functional, cell-based; conditions: GBM2, 72 h
[5] = Cytotoxicity against normal human astrocytes assessed as cell viability incubated for 72 hrs by WST-1 method; type: cell-based; conditions: Astrocyte
[6] = Selectivity index, ratio of IC50 for normal human astrocytes to IC50 for human GBM1 cells
[7] = Selectivity index, ratio of IC50 for normal human astrocytes to IC50 for human GBM2 cells
[8] = Antiproliferative activity against human GBM3 cells assessed as reduction in cell viability at 10 uM incubated for 72 hrs by WST-1 method; type: functional; conditions: GBM3, 72 h
[9] = Antiproliferative activity against human GBM3 cells assessed as reduction in cell viability incubated for 72 hrs by WST-1 method; type: functional, cell-based; conditions: GBM3, 72 h
[10] = Selectivity index, ratio of IC50 for normal human astrocytes to IC50 for human GBM3 cells
GBM1 = assay: Induction of apoptosis in human GBM1 cells assessed as loss of mitochondrial membrane potential at 10 uM after 2 hrs by JC-1 staining based fluorescence microscopy; type: functional, cell-based
GBM2 [11] = assay: Induction of apoptosis in human GBM2 cells assessed as loss of mitochondrial membrane potential at 10 uM after 2 hrs by JC-1 staining based fluorescence microscopy; type: functional, cell-based
GBM2 [12] = assay: Induction of apoptosis in human GBM2 cells assessed as loss of mitochondrial membrane potential in presence of cyclosporine A at 10 uM after 2 hrs by JC-1 staining based fluorescence microscopy; type: functional, cell-based
GBM2 [13] = assay: Induction of apoptosis in human GBM2 cells assessed as loss of mitochondrial membrane potential in presence of BAPTA at 10 uM after 2 hrs by JC-1 staining based fluorescence microscopy; type: functional, cell-based
[14] = biological target: Translocator protein (Rattus norvegicus) (UniProt P16257); assay: Displacement of [3H]PK11195 from TSPO receptor in Sprague-Dawley rat cerebral cortex membrane at 10 uM by radiometric competitive assay; type: tissue-based
[15] = biological target: Translocator protein (Rattus norvegicus) (UniProt P16257); assay: Displacement of [3H]PK11195 from TSPO receptor in Sprague-Dawley rat cerebral cortex membrane at 1 uM by radiometric competitive assay; type: tissue-based
[16] = biological target: Translocator protein (Rattus norvegicus) (UniProt P16257); assay: Displacement of [3H]PK11195 from TSPO receptor in Sprague-Dawley rat cerebral cortex membrane at 100 nM by radiometric competitive assay; type: tissue-based
[17] = biological target: Translocator protein (Rattus norvegicus) (UniProt P16257); assay: Displacement of [3H]PK11195 from TSPO receptor in Sprague-Dawley rat cerebral cortex membrane at 10 nM by radiometric competitive assay; type: tissue-based
Translocator protein = Translocator protein (Rattus norvegicus, UniProt P16257); assay: Displacement of [3H]PK11195 from TSPO receptor in Sprague-Dawley rat cerebral cortex membrane by radiometric competitive assay; type: tissue-based
GBM [18] = assay: Tumoricidal effect in patient derived GBM 464T cells assessed as reduction in neurosphere formation at 0.1 uM after 1 to 2 weeks by 3D tumor clonogenic assay; type: functional, cell-based; conditions: Homo sapiens
GBM [19] = assay: Tumoricidal effect in patient derived GBM 096T cells assessed as reduction in neurosphere formation at 0.1 uM after 1 to 2 weeks by 3D tumor clonogenic assay; type: functional, cell-based; conditions: Homo sapiens
GBM [20] = assay: Tumoricidal effect in patient derived GBM 025T cells assessed as reduction in neurosphere formation at 0.1 uM after 1 to 2 weeks by 3D tumor clonogenic assay; type: functional, cell-based; conditions: Homo sapiens
GBM [21] = assay: Tumoricidal effect in patient derived GBM 448T cells assessed as reduction in neurosphere formation at 0.1 uM after 1 to 2 weeks by 3D tumor clonogenic assay; type: functional, cell-based; conditions: Homo sapiens
GBM [22] = assay: Tumoricidal effect in patient derived GBM 047T cells assessed as reduction in neurosphere formation at 0.1 uM after 1 to 2 weeks by 3D tumor clonogenic assay; type: functional, cell-based; conditions: Homo sapiens
GBM [23] = assay: Tumoricidal effect in patient derived GBM 464T cells assessed as reduction in neurosphere formation at 0.5 uM after 1 to 2 weeks by 3D tumor clonogenic assay; type: functional, cell-based; conditions: Homo sapiens
GBM [24] = assay: Tumoricidal effect in patient derived GBM 096T cells assessed as reduction in neurosphere formation at 0.5 uM after 1 to 2 weeks by 3D tumor clonogenic assay; type: functional, cell-based; conditions: Homo sapiens
GBM [25] = assay: Tumoricidal effect in patient derived GBM 025T cells assessed as reduction in neurosphere formation at 0.5 uM after 1 to 2 weeks by 3D tumor clonogenic assay; type: functional, cell-based; conditions: Homo sapiens
GBM [26] = assay: Tumoricidal effect in patient derived GBM 448T cells assessed as reduction in neurosphere formation at 0.5 uM after 1 to 2 weeks by 3D tumor clonogenic assay; type: functional, cell-based; conditions: Homo sapiens
GBM [27] = assay: Tumoricidal effect in patient derived GBM 047T cells assessed as reduction in neurosphere formation at 0.5 uM after 1 to 2 weeks by 3D tumor clonogenic assay; type: functional, cell-based; conditions: Homo sapiens
Cytochrome P450 1A2 = biological target: T1, Cytochrome P450 1A2 (Homo sapiens, UniProt P05177); assay: Inhibition of CYP1A2 (unknown origin) using luciferin tagged substrate preincubated for 10 mins before substrate addition; type: ADME
T1 sequence (P05177 whole entry): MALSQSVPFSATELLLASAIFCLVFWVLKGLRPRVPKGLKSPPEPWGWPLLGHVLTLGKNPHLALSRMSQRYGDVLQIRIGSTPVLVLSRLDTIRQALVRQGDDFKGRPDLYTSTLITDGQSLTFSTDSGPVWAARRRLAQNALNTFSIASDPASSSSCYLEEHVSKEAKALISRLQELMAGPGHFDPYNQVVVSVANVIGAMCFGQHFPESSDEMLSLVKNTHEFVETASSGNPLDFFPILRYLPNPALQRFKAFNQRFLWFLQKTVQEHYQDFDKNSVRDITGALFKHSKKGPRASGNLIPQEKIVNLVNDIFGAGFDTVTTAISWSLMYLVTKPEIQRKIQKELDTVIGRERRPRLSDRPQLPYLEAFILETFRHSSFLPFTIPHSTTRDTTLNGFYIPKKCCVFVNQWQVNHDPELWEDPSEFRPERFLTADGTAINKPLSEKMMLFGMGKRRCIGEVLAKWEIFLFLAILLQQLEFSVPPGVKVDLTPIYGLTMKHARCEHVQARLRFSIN

Cytochrome P450 2C9 = Cytochrome P450 2C9 (Homo sapiens, UniProt P11712); assay: Inhibition of CYP2C9 (unknown origin) using luciferin tagged substrate preincubated for 10 mins before substrate addition; type: ADME
Cytochrome P450 2C19 = Cytochrome P450 2C19 (Homo sapiens, UniProt P33261); assay: Inhibition of CYP2C19 (unknown origin) using luciferin tagged substrate preincubated for 10 mins before substrate addition; type: ADME
Cytochrome P450 2D6 = Cytochrome P450 2D6 (Homo sapiens, UniProt P10635); assay: Inhibition of CYP2D6 (unknown origin) using luciferin tagged substrate preincubated for 10 mins before substrate addition; type: ADME
Cytochrome P450 3A4 = Cytochrome P450 3A4 (Homo sapiens, UniProt P08684); assay: Inhibition of CYP3A4 (unknown origin) using luciferin tagged substrate preincubated for 10 mins before substrate addition; type: ADME
[28] = biological target: Voltage-gated inwardly rectifying potassium channel KCNH2 (Homo sapiens, UniProt Q12809); assay: Displacement of [3H]astemizole from human ERG potassium channel expressed in HEK293 cell membrane after 1 hr; type: cell membranes
GBM2 [29] = assay: Induction of apoptosis in human GBM2 cells assessed as loss of mitochondrial membrane potential in presence of PK11195 at 10 uM after 2 hrs by JC-1 staining based fluorescence microscopy; type: functional, cell-based
[30] = biological target: Translocator protein (Rattus norvegicus) (UniProt P16257); assay: Displacement of [3H]PK11195 from TSPO receptor in Sprague-Dawley rat cerebral cortex membrane at 1 nM by radiometric competitive assay; type: tissue-based
[31] = biological target: Translocator protein (Rattus norvegicus) (UniProt P16257); conditions: Sprague-Dawley, Cerebral cortex, Membrane, 0.1 nM
GBM [32] = assay: Tumoricidal effect in patient derived GBM 464T cells assessed as reduction in neurosphere formation at 20 uM after 1 to 2 weeks by 3D tumor clonogenic assay; type: functional, cell-based; conditions: Homo sapiens
GBM [33] = assay: Tumoricidal effect in patient derived GBM 096T cells assessed as reduction in neurosphere formation at 20 uM after 1 to 2 weeks by 3D tumor clonogenic assay; type: functional, cell-based; conditions: Homo sapiens
GBM [34] = assay: Tumoricidal effect in patient derived GBM 025T cells assessed as reduction in neurosphere formation at 20 uM after 1 to 2 weeks by 3D tumor clonogenic assay; type: functional, cell-based; conditions: Homo sapiens
GBM [35] = assay: Tumoricidal effect in patient derived GBM 448T cells assessed as reduction in neurosphere formation at 20 uM after 1 to 2 weeks by 3D tumor clonogenic assay; type: functional, cell-based; conditions: Homo sapiens
GBM [36] = assay: Tumoricidal effect in patient derived GBM 047T cells assessed as reduction in neurosphere formation at 20 uM after 1 to 2 weeks by 3D tumor clonogenic assay; type: functional, cell-based; conditions: Homo sapiens

O=C(Nc1cc2ncncc2cc1OCc1cccc(Cl)c1)Nc1cccc2ccccc12
inhibition at 10 µM [1]: 100%
inhibition at 10 µM [2]: 99.9%
IC50 [3]: 1.1 µM
IC50 [4]: 1.1 µM
IC50 [5]: > 10 µM
Ratio IC50 [6]: >10.1
Ratio IC50 [7]: >10.1
inhibition at 10 µM [8]: 98.7%
IC50 [9]: 0.8 µM
Ratio IC50 [10]: >10.1
Activity (GBM1): Active
Activity (GBM2 [11]): Active
Activity (GBM2 [12]): Active
Activity (GBM2 [13]): Active
inhibition [14]: 85%
inhibition [15]: 59%
inhibition [16]: 15%
inhibition [17]: 2%
IC50 (Translocator protein): 0.722 µM
Activity (GBM [18]): Active
Activity (GBM [19]): Active
Activity (GBM [20]): Active
Activity (GBM [21]): inactive
Activity (GBM [22]): inactive
Activity (GBM [23]): Active
Activity (GBM [24]): Active
Activity (GBM [25]): Active
Activity (GBM [26]): Active
Activity (GBM [27]): Active
IC50 (Cytochrome P450 1A2): > 10 µM
IC50 (Cytochrome P450 2C9): > 10 µM
IC50 (Cytochrome P450 2C19): > 10 µM
IC50 (Cytochrome P450 2D6): 5.1 µM
IC50 (Cytochrome P450 3A4): > 10 µM
IC50 [28]: > 10 µM
Activity (GBM2 [29]): Active

CCC(C)N(C)C(=O)c1cc2ccccc2c(-c2ccccc2Cl)n1 (stereo not drawn)
inhibition [15]: 100%
inhibition [16]: 90%
inhibition [17]: 45%
inhibition [30]: 7%
inhibition [31]: 0%

Cn1nnc2c(C(N)=O)ncn2c1=O
Activity (GBM [32]): Active
Activity (GBM [33]): inactive
Activity (GBM [34]): inactive
Activity (GBM [35]): inactive
Activity (GBM [36]): Active

O=C(Nc1cccc(Cl)c1)Nc1cc2ncncc2cc1OCc1ccccc1Cl
inhibition at 10 µM [1]: 78.5%
inhibition at 10 µM [2]: 97.2%
IC50 [3]: 2.6 µM
IC50 [4]: 2.1 µM
IC50 [5]: > 10 µM
Ratio IC50 [6]: >4
Ratio IC50 [7]: >4
inhibition at 10 µM [8]: 103%
IC50 [9]: 2.8 µM
Ratio IC50 [10]: >4
Activity (GBM1): Active
inhibition [14]: 80%
inhibition [15]: 23%
inhibition [16]: 14%
inhibition [17]: 6%
inhibition [30]: 2%
IC50 (Translocator protein): 2.79 µM
